Measured values: US10865216B2, “Tricyclic Gyrase inhibitors” (MERCK SHARP & DOHME CORP., priority 2012, dated 2020)
In brackets after ≈: the same amount, converted by molar mass. Like-named read-outs stand apart in the source and are kept apart here.

Columns and labels:
[1] = amide bond, BOP, 40.0 °C
[2] = amide bond, BOP/Et3N then EDC, DCM/NMP 1:1, 40.0 °C
[3] = tested on: E. coli ATCC 25922; experiment: MIC, E. coli ATCC 25922; assay type: cell-based; conditions: Escherichia coli
[4] = tested on: S. aureus ATCC 13709; experiment: MIC, S. aureus ATCC 13709; assay type: cell-based; conditions: Staphylococcus aureus
[5] = biological target: T1, hERG (Homo sapiens, UniProt Q12809); experiment: Cerep automated patch-clamp hERG assay, Chinese Hamster Ovary K1 cells; assay type: cell-based; conditions: for IC50: Table 19, automated patch-clamp, CHO K1 cells, tail current
T1 construct: host or cells: Chinese Hamster Ovary K1 cells
Experimental: A Cerep automated patch-clamp assay using Chinese Hamster Ovary K1 cells was used to measure hERG IC50 values. The degree of inhibition (%) was obtained by measuring the tail current amplitude, which is induced by a one second test pulse to −40 mV after a two second pulse to +20 mV, before and after drug incubation (the difference in current was normalized to control and multiplied by 100 to obtain the percent inhibition).
Concentration (log) response curves were fitted to a logistic equation (three parameters assuming complete block of the current at very high test compound concentrations) to generate estimates of the 50% inhibitory concentration (IC50). The concentration-response relationship of each compound was constructed from the percentage reductions of current amplitude by sequential concentrations. The hERG IC50 values are provided in Table 19 below for the compounds tested.

[6] = tested on: S. pneumoniae ATCC 51916; experiment: MIC, S. pneumoniae ATCC 51916; assay type: cell-based; conditions: Streptococcus pneumoniae, ATCC51916
[7] = tested on: K. pneumoniae ATCC 700603; experiment: MIC, K. pneumoniae ATCC 700603; assay type: cell-based; conditions: Klebsiella pneumoniae, ATCC700603
[8] = tested on: P. aeruginosa ATCC 15692; experiment: MIC, P. aeruginosa ATCC 15692; assay type: cell-based; conditions: Pseudomonas aeruginosa, ATCC15692
[9] = tested on: A. baumannii ATCC 19606; experiment: MIC, A. baumannii ATCC 19606; assay type: cell-based; conditions: Acinetobacter baumannii, ATCC19606
[10] = tested on: Bp; experiment: organism not typed; assay type: cell-based; conditions: read-out: Bp MIC
[11] = tested on: F. tularensis holarctica LVS; experiment: microbe, parasite or virus in culture; assay type: cell-based; conditions: Francisella tularensis, read-out: Ft MIC
[12] = tested on: B. thailandensis ATCC E264; experiment: microbe, parasite or virus in culture; assay type: cell-based; conditions: Burkholderia thailandensis, ATCCE264, read-out: Bt MIC
[13] = ATCC25922, E. coli, Alamar Blue read after overnight incubation at 35° C., read-out: MIC Ec
[14] = ATCC13709, S. aureus, Alamar Blue read after overnight incubation at 35° C., read-out: MIC Sa

T1 sequence (Q12809 whole entry): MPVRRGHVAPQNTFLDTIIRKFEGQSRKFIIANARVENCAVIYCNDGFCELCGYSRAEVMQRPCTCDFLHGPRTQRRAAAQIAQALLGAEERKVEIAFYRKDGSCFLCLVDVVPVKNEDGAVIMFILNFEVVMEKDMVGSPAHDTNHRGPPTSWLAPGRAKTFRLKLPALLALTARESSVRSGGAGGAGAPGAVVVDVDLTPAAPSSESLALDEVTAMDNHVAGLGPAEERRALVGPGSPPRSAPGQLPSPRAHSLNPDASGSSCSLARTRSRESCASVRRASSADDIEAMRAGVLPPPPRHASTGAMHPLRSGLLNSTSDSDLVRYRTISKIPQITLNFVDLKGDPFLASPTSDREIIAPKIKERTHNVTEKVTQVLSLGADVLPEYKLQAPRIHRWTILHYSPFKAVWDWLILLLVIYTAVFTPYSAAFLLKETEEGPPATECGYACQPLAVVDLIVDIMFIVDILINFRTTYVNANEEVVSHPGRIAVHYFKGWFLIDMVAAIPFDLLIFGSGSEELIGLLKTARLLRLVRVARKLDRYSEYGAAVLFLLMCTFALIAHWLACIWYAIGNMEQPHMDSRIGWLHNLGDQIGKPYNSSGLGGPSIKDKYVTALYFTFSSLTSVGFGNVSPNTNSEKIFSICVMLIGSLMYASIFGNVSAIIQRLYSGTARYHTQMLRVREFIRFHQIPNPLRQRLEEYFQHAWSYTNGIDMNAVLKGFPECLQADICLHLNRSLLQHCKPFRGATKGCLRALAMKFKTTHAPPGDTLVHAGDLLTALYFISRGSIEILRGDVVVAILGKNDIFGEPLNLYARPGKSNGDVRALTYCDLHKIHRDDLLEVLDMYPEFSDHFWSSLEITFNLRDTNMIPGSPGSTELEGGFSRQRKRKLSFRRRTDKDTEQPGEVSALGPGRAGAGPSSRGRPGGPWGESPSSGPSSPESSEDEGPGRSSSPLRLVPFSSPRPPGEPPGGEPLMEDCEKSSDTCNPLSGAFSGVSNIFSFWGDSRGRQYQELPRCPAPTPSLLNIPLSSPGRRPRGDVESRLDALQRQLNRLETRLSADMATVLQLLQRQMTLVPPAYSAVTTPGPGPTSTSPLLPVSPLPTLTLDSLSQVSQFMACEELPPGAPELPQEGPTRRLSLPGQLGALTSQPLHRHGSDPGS

CN(C(=O)OC(C)(C)C)c1cc(F)cc2c1[nH]c1nc3nc(c12)NCCCCCCNC(=O)CSc1ncc(cn1)O3
ring closure, yield of all isomers ([1]; from CN(C(=O)OC(C)(C)C)c1cc(F)cc2c1[nH]c1nc(Oc3cnc(SCC(=O)O)nc3)nc(NCCCCCCN)c12, then EDC (Et3N), DCM/NMP, 30.0 mM, 3.0 h): 72%

CN(C(=O)OC(C)(C)C)c1cc(F)cc2c1[nH]c1nc3nc(c12)NCCCCCCNC(=O)c1cncc(c1)O3
ring closure, yield of all isomers ([1]; from CN(C(=O)OC(C)(C)C)c1cc(F)cc2c1[nH]c1nc(Oc3cncc(C(=O)O)c3)nc(NCCCCCCN)c12, then EDC (Et3N), DCM/NMP, 18.5 mM, 3.0 h): 74%

CN(C(=O)OC(C)(C)C)c1cc(F)cc2c1[nH]c1nc3nc(c12)NCCCCNC(=O)CSc1ncc(cn1)O3
ring closure, yield after HPLC ([2]; from CN(C(=O)OC(C)(C)C)c1cc(F)cc2c1[nH]c1nc(Oc3cnc(SCC(=O)O)nc3)nc(NCCCCN)c12, 17-membered ring, 36.5 mM): 34%

CNc1cc(F)cc2c1[nH]c1nc3nc(c12)N([C@H](CN)COCCCN)C(=O)CSc1ncc(cn1)O3
ring closure, yield after HPLC ([2]; from CNc1cc(F)cc2c1[nH]c1nc(Oc3cnc(SCC(=O)O)nc3)nc(N[C@H](CN)COCCCN)c12, 38.5 mM): 57%

CNc1cc(F)cc2c1[nH]c1nc3nc(c12)N1CC(CNC(=O)COc2cc(C#N)cc(c2)O3)C1
ring closure, yield of all isomers ([1]; from CNc1cc(F)cc2c1[nH]c1nc(Oc3cc(C#N)cc(OCC(=O)O)c3)nc(N3CC(CN)C3)c12, EDC (Et3N), DCM/NMP (1:1), 40.0 mM, 2.0 h): 17%

CNc1cc(F)cc2c1[nH]c1nc3nc(c12)N[C@H](CN)COCCCNC(=O)CSc1ncc(cn1)O3
ring closure, yield of all isomers ([1]; from CNc1cc(F)cc2c1[nH]c1nc(Oc3cnc(SCC(=O)O)nc3)nc(N[C@H](CN)COCCCN)c12, then EDC (Et3N), DCM/NMP (1:1), 38.5 mM, 3.0 h): 57%

2-((5-((4-(6-aminohexyl)amino)-8-((tert-butoxycarbonyl)(methyl)amino)-6-fluoro-9H-pyrimido[4,5-b]indol-2-yl)oxy)pyrimidin-2-yl)thio)acetic acid
ring closure, yield after HPLC ([2]; the molecule shown is the open-chain precursor, 19-membered ring, 30.0 mM): 72%

5-((4-(6-aminohexyl)amino)-8-((tert-butoxycarbonyl)(methyl)amino)-6-fluoro-9H-pyrimido[4,5-b]indol-2-yl)oxy)nicotinic acid
ring closure, yield after HPLC ([2]; the molecule shown is the open-chain precursor, 16-membered ring, 18.5 mM): 74%

CNc1cc(F)cc2c1[nH]c1nc(Oc3cnc([C@@H](C)O)nc3)nc(N3C[C@H]4C[C@@H]3C[C@H]4N)c12 [Compound 4.408]
MIC [3, 13]: ≤ 0.5 µg/mL | MIC [4, 14]: ≤ 0.5 µg/mL | IC50 [5]: 6.4 µM

CNc1cc(F)cc2c1[nH]c1nc(Oc3cnc(C(C)O)nc3)nc(N3CC4C[C@@H](N)C4C3)c12 (stereo partly shown) [Compound 4.409]
MIC ([6]; Table 10, Spn = S. pneumoniae): ≤ 0.5 µg/mL | MIC [3, 13]: ≤ 0.5 µg/mL | MIC ([3]; ATCC25922, Table 10, Ec = E. coli, strain not stated, read-out: Ec MIC): ≤ 0.5 µg/mL | MIC ([7]; Table 10, Kpn = K. pneumoniae): 4 µg/mL (≈ 8.61 µM) | MIC [4, 14]: ≤ 0.5 µg/mL | MIC ([4]; ATCC13709, Table 10, Sa = S. aureus, read-out: Sa MIC): ≤ 0.5 µg/mL | IC50 [5]: 7.5 µM | MIC ([8]; Table 10, Pa = P. aeruginosa): 1 µg/mL (≈ 2.15 µM) | MIC ([9]; Table 10, Ab = A. baumannii, strain not stated): 1 µg/mL (≈ 2.15 µM)

CNc1cc(F)c(F)c2c1[nH]c1nc(Oc3cnc([C@@H](C)O)nc3)nc(N3C[C@H]4C[C@@H]3C[C@H]4N)c12 [Compound 9.1]
MIC ([6]; Table 20, read-out: Spn MIC): ≤ 0.5 µg/mL | MIC ([3]; ATCC25922, Table 20, read-out: Ec MIC): ≤ 0.5 µg/mL | MIC ([7]; Table 20, read-out: Kpn MIC): 4 µg/mL (≈ 8.29 µM) | MIC [10]: 0.5 µg/mL (≈ 1.04 µM) | MIC ([4]; ATCC13709, Table 20, read-out: Sa MIC): ≤ 0.5 µg/mL | MIC [11]: 0.5 µg/mL (≈ 1.04 µM) | IC50 [5]: 80 to 100 µM | selectivity in the hERG assay ([5]; compared with previous compounds in the series): significantly more selective | MIC ([8]; Table 20, read-out: Pa MIC): 2 µg/mL (≈ 4.15 µM) | MIC [12]: 0.5 µg/mL (≈ 1.04 µM) | MIC ([9]; Table 20, read-out: Ab MIC): 1 µg/mL (≈ 2.07 µM)
